Tested on: 677734-321-R-J1-PDC complex spheroid viability
Experiment: Anticancer human tumor 677734-321-R-J1-PDC patient-derived soft tissue sarcoma cell line growth inhibition [POLQ]
Conditions: for IC50: curve of first compound; for viability, T/C: stronger effect = lower value
Outline: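 Three-cell-type spheroids modelling solid tumor plus stroma served as the readout system; POL inhibitors were tested individually and in combination, concentration ranges set by clinical Cmax where known.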

[1] = second compound 0.0316 µM, first compound 0.0316 µM
[2] = second compound 0.0316 µM, first compound 0.1 µM
[3] = second compound 0.0316 µM, first compound 0.316 µM
[4] = second compound 0.0316 µM, first compound 1 µM
[5] = second compound 0.0316 µM, first compound 3.16 µM
[6] = second compound 0.0316 µM, first compound 10 µM
[7] = second compound 0.1 µM, first compound 0.0316 µM
[8] = second compound 0.1 µM, first compound 0.1 µM
[9] = second compound 0.1 µM, first compound 0.316 µM
[10] = second compound 0.1 µM, first compound 1 µM
[11] = second compound 0.1 µM, first compound 3.16 µM
[12] = second compound 0.1 µM, first compound 10 µM
[13] = second compound 0.316 µM, first compound 0.0316 µM
[14] = second compound 0.316 µM, first compound 0.1 µM
[15] = second compound 0.316 µM, first compound 0.316 µM
[16] = second compound 0.316 µM, first compound 1 µM
[17] = second compound 0.316 µM, first compound 3.16 µM
[18] = second compound 0.316 µM, first compound 10 µM
[19] = second compound 1 µM, first compound 0.0316 µM
[20] = second compound 1 µM, first compound 0.1 µM
[21] = second compound 1 µM, first compound 0.316 µM
[22] = second compound 1 µM, first compound 1 µM
[23] = second compound 1 µM, first compound 3.16 µM
[24] = second compound 1 µM, first compound 10 µM
[25] = second compound 3.16 µM, first compound 0.0316 µM
[26] = second compound 3.16 µM, first compound 0.1 µM
[27] = second compound 3.16 µM, first compound 0.316 µM
[28] = second compound 3.16 µM, first compound 1 µM
[29] = second compound 3.16 µM, first compound 3.16 µM
[30] = second compound 3.16 µM, first compound 10 µM
[31] = second compound 10 µM, first compound 0.0316 µM
[32] = second compound 10 µM, first compound 0.1 µM
[33] = second compound 10 µM, first compound 0.316 µM
[34] = second compound 10 µM, first compound 1 µM
[35] = second compound 10 µM, first compound 3.16 µM
[36] = second compound 10 µM, first compound 10 µM
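Further: spheroids exposed to compounds for one week.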
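Wherever viability, T/C is given: 100% = vehicle DMSO treated spheroids.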

For `C#Cc1c(F)ccc2cc(O)cc(-c3ncc4c(N5CC6CCC(C5)N6)nc(OCC56CCCN5CC(F)C6)nc4c3F)c12` (stereo unspecified) + Nc1ccc(C#CCN(C(=O)Cc2ncc(C(F)(F)F)cc2C(F)(F)F)c2ccc(F)cc2)nn1, the IC50 (second compound 0.0316 µM) was > 10 µM, the IC50 (second compound 0.1 µM) was > 10 µM and the IC50 (second compound 0.316 µM) was > 10 µM. For the same compound, the IC50 (second compound 1 µM) was > 10 µM, the IC50 (second compound 3.16 µM) was > 10 µM and the IC50 (second compound 10 µM) was > 10 µM. It also gave a viability, T/C [1] of 104%, a viability, T/C [2] of 117% and a viability, T/C [3] of 115%. It also gave a viability, T/C [4] of 117%, a viability, T/C [5] of 115% and a viability, T/C [6] of 98.7%. For the same compound, the viability, T/C [7] was 106%, the viability, T/C [8] was 116% and the viability, T/C [9] was 112%. It also gave a viability, T/C [10] of 118%, a viability, T/C [11] of 98.4% and a viability, T/C [12] of 79.6%. For the same compound, the viability, T/C [13] was 113%, the viability, T/C [14] was 124% and the viability, T/C [15] was 96.9%. It also gave a viability, T/C [16] of 110%, a viability, T/C [17] of 103% and a viability, T/C [18] of 103%. For the same compound, the viability, T/C [19] was 105%, the viability, T/C [20] was 104% and the viability, T/C [21] was 109%. For the same compound, the viability, T/C [22] was 114%, the viability, T/C [23] was 119% and the viability, T/C [24] was 94.1%. The viability, T/C [25] was 114%, the viability, T/C [26] was 98% and the viability, T/C [27] was 122%. The viability, T/C [28] was 111%, the viability, T/C [29] was 96.8% and the viability, T/C [30] was 96.5%. For the same compound, the viability, T/C [31] was 107%, the viability, T/C [32] was 99.8% and the viability, T/C [33] was 112%. For the same compound, the viability, T/C [34] was 108%, the viability, T/C [35] was 94.8% and the viability, T/C [36] was 88.8%.
`CC(C)n1c(=O)n(C)c2cnc3cc(F)c(-c4ccc(OCCCN5CCCCC5)nc4)cc3c21` + Cc1cccc(N(C)C(=O)C2C(O)CCN2c2nc(C)cc(C(F)(F)F)c2C#N)c1 was tested, and the IC50 (second compound 0.0316 µM) was > 10 µM, the IC50 (second compound 0.1 µM) was > 10 µM and the IC50 (second compound 0.316 µM) was > 10 µM. The IC50 (second compound 1 µM) was > 10 µM, the IC50 (second compound 3.16 µM) was > 10 µM and the IC50 (second compound 10 µM) was > 10 µM. The viability, T/C [1] was 104%, the viability, T/C [2] was 98.6% and the viability, T/C [3] was 104%. For the same compound, the viability, T/C [4] was 98.2%, the viability, T/C [5] was 99% and the viability, T/C [6] was 92.4%. The viability, T/C [7] was 104%, the viability, T/C [8] was 101% and the viability, T/C [9] was 99.4%. For the same compound, the viability, T/C [10] was 100%, the viability, T/C [11] was 98.7% and the viability, T/C [12] was 88.6%. The viability, T/C [13] was 101%, the viability, T/C [14] was 91.6% and the viability, T/C [15] was 102%. It also gave a viability, T/C [16] of 109%, a viability, T/C [17] of 106% and a viability, T/C [18] of 99.8%. For the same compound, the viability, T/C [19] was 110%, the viability, T/C [20] was 93.5% and the viability, T/C [21] was 99%. The viability, T/C [22] was 108%, the viability, T/C [23] was 104% and the viability, T/C [24] was 88.1%. For the same compound, the viability, T/C [25] was 98.7%, the viability, T/C [26] was 102% and the viability, T/C [27] was 109%. For the same compound, the viability, T/C [28] was 106%, the viability, T/C [29] was 99.3% and the viability, T/C [30] was 92.4%. The viability, T/C [31] was 101%, the viability, T/C [32] was 98.8% and the viability, T/C [33] was 97.5%. The viability, T/C [34] was 95.8%, the viability, T/C [35] was 97.4% and the viability, T/C [36] was 92.5%.
In the case of `O=C(Nc1ccc(O)c(NS(=O)(=O)c2ccc(F)cc2)c1)c1ccc(-c2ccccc2)cc1` + Cc1cccc(N(C)C(=O)C2C(O)CCN2c2nc(C)cc(C(F)(F)F)c2C#N)c1, the IC50 (second compound 0.0316 µM) is reported as 4.14 µM, the IC50 (second compound 0.1 µM) is reported as 5.42 µM and the IC50 (second compound 0.316 µM) is reported as 3.71 µM. It also gave an IC50 (second compound 1 µM) of 3.42 µM, an IC50 (second compound 3.16 µM) of 2.08 µM and an IC50 (second compound 10 µM) of 1.47 µM. For the same compound, the viability, T/C [1] was 89.4%, the viability, T/C [2] was 92.9% and the viability, T/C [3] was 97.1%. For the same compound, the viability, T/C [4] was 96.7%, the viability, T/C [5] was 60.3% and the viability, T/C [6] was 16%. It also gave a viability, T/C [7] of 98.5%, a viability, T/C [8] of 95.8% and a viability, T/C [9] of 101%. The viability, T/C [10] was 92.7%, the viability, T/C [11] was 75.6% and the viability, T/C [12] was 20.9%. The viability, T/C [13] was 101%, the viability, T/C [14] was 97.1% and the viability, T/C [15] was 99.3%. It also gave a viability, T/C [16] of 70.6%, a viability, T/C [17] of 58% and a viability, T/C [18] of 19.3%. For the same compound, the viability, T/C [19] was 103%, the viability, T/C [20] was 90.2% and the viability, T/C [21] was 101%. It also gave a viability, T/C [22] of 101%, a viability, T/C [23] of 52.5% and a viability, T/C [24] of 15.6%. It also gave a viability, T/C [25] of 84.3%, a viability, T/C [26] of 110% and a viability, T/C [27] of 87.6%. For the same compound, the viability, T/C [28] was 75.7%, the viability, T/C [29] was 35.5% and the viability, T/C [30] was 17.9%. The viability, T/C [31] was 76.8%, the viability, T/C [32] was 95.1% and the viability, T/C [33] was 74.6%. The viability, T/C [34] was 59.1%, the viability, T/C [35] was 31.5% and the viability, T/C [36] was 11.4%.
